Series [1] deals with T1, D(2) dopamine receptor (Homo sapiens, UniProt P14416). The experiment in a line: Displacement [125I]iodosulpiride from human Dopamine receptor D2 expressed in CHO cells. The class given is cell-based.
For series [2], the target named is T2, D(3) dopamine receptor (Homo sapiens, UniProt P35462). As to the kind of experiment: Displacement of [125I]iodosulpiride from human Dopamine receptor D3 expressed in CHO cells. The format is cell-based. In general terms: Loss of bound radioactivity is the signal in a displacement assay; it reports binding, not function.
The nature of series [3]: Pharmacokinetic property (CLb)of the compound was determined in rat. The class given is ADME, organism-based. The settings on record: blood, read-out: CLb.
Series [4] concerns the target T1, D(2) dopamine receptor. The experiment in a line: In vitro functional antagonist effect by its affinity to bind to Dopamine receptor D2.
The nature of series [5]: Pharmacokinetic property (blood clearance) in rat. The class given is ADME, organism-based.
For series [6], the target named is T2, D(3) dopamine receptor. As to the kind of experiment: In vitro functional antagonist effect by its affinity to bind to Dopamine receptor D3.
Series [7] can be described thus: Half life in rat. The format is ADME, organism-based. The note with it: in vivo.

SMILES strings stand for the structures.

One may read the Ki as the dissociation constant of the complex between target and ligand, obtained from inhibition or displacement. The term pKb denotes the negative decadic logarithm of the Kb, by convention in mol/L. A higher pKb goes with a small Kb. By half-life is commonly meant the time in which the quantity being followed falls by half. A high value points to slow decline.

T2 sequence (P35462 whole entry): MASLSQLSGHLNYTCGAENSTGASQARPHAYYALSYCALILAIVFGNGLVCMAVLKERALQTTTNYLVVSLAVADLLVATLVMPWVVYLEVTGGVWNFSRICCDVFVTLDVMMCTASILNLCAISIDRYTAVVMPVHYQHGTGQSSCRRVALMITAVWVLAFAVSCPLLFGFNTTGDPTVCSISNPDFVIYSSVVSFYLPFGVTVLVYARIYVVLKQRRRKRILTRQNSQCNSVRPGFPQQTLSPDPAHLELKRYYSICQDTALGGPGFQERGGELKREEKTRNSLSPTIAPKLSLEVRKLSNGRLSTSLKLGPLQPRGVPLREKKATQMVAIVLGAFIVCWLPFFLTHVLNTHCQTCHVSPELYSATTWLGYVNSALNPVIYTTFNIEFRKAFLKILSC
T1 sequence (P14416 whole entry): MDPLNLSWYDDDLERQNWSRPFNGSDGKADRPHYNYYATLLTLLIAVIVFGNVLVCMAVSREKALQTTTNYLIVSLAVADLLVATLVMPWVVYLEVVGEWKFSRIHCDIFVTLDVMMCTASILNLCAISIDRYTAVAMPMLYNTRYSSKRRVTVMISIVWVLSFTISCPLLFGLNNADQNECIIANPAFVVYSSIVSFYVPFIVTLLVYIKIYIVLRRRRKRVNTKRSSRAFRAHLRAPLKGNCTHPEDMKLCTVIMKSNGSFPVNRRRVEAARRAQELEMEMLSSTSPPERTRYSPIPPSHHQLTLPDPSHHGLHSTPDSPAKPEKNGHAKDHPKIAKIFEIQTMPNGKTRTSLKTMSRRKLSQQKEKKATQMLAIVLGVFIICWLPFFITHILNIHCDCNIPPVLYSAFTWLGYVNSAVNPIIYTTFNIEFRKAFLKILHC

`O=C(NCCCCN1CCc2ccc(OS(=O)(=O)C(F)(F)F)cc2C1)c1ccc(-c2ccccc2)cc1`: the figures for the Ki on D(2) dopamine receptor [1] and on D(3) dopamine receptor [2] were 501 nM and 7.94 nM, respectively.

Take `CNC(=O)c1ccc(-c2ccc(C(=O)NCCCCN3CCc4ccc(OS(=O)(=O)C(F)(F)F)cc4C3)cc2)cc1`: the Ki is 100 nM at D(2) dopamine receptor [1] and 2.51 nM at D(3) dopamine receptor [2].

Take `O=C(NCCCCN1CCc2ccccc2C1)c1ccc(-c2ccccc2)cc1`: in series [3], the clearance amounted to 20 mL/min/kg. Also, the Ki on D(2) dopamine receptor [1] was 501 nM; at D(3) dopamine receptor [2], 25.1 nM.

For the compound `Cn1c(=O)ccc2cc(/C=C/C(=O)NCCCCN3CCc4ccc(OS(=O)(=O)C(F)(F)F)cc4C3)ccc21`, the values for the Ki at D(2) dopamine receptor [1] and at D(3) dopamine receptor [2] were 316 nM and 10 nM, respectively.

As for `CC(=O)c1ccc(/C=C/C(=O)NCCCCN2CCc3ccc(OS(=O)(=O)C(F)(F)F)cc3C2)cc1`, the Ki on D(2) dopamine receptor [1] is 251 nM; at D(3) dopamine receptor [2], 3.98 nM.

Consider `COc1cccc(/C=C/C(=O)NCCCCN2CCc3ccc(OS(=O)(=O)C(F)(F)F)cc3C2)c1`, for which the Ki was 316 nM on D(2) dopamine receptor [1] and 3.16 nM at D(3) dopamine receptor [2].

For the compound `CCCN(CCCCNC(=O)c1ccc(-c2ccccc2)cc1)C1CCc2c(Cl)cccc2C1` (stereo unspecified), in series [3], the clearance turned out to be 80 mL/min/kg.

`CNC(=O)c1cccc(-c2ccc(C(=O)NCCCCN3CCc4ccc(OS(=O)(=O)C(F)(F)F)cc4C3)cc2)c1`: the Ki on D(2) dopamine receptor [1] is 126 nM; on D(3) dopamine receptor [2], 2 nM.

Consider `O=C(/C=C/c1ccc2ccccc2c1)NCCCCN1CCc2ccc(OS(=O)(=O)C(F)(F)F)cc2C1`, for which the Ki was 1000 nM at D(2) dopamine receptor [1] and 5.01 nM on D(3) dopamine receptor [2].

As for `O=C(/C=C/c1ccc2[nH]ccc2c1)NCCCCN1CCc2ccc(OS(=O)(=O)C(F)(F)F)cc2C1`, the inhibition constant (Ki) was 200 nM on D(2) dopamine receptor [1] and 2 nM on D(3) dopamine receptor [2].

As for `CC(=O)c1cccc(/C=C/C(=O)NCCCCN2CCc3ccc(OS(=O)(=O)C(F)(F)F)cc3C2)c1`, the results for the Ki at D(2) dopamine receptor [1] and on D(3) dopamine receptor [2] were 398 nM and 3.98 nM, respectively.

With `O=C(/C=C/c1c[nH]c2ccccc12)NCCCCN1CCc2ccc(OS(=O)(=O)C(F)(F)F)cc2C1`, the pKb at D(2) dopamine receptor [4] was 6.6; on D(3) dopamine receptor [6] it was 8.9. For the same compound, the clearance in series [5] was 27 mL/min/kg. Also, the results for the Ki at D(2) dopamine receptor [1] and at D(3) dopamine receptor [2] were 631 nM and 3.98 nM, respectively. Also, the half-life in series [7] was 2.5 h.

Turning to `COc1ccc(/C=C/C(=O)NCCCCN2CCc3ccc(OS(=O)(=O)C(F)(F)F)cc3C2)cc1`, the Ki at D(2) dopamine receptor [1] is 316 nM; at D(3) dopamine receptor [2], 3.98 nM.

Regarding `O=C(/C=C/c1ccc2ccccc2n1)NCCCCN1CCc2ccc(OS(=O)(=O)C(F)(F)F)cc2C1`, the inhibitory constant (Ki) on D(2) dopamine receptor [1] was 398 nM; on D(3) dopamine receptor [2] it was 3.98 nM.

Consider `O=C(/C=C/c1cnc2ccccc2c1)NCCCCN1CCc2ccc(OS(=O)(=O)C(F)(F)F)cc2C1`, for which the Ki is 316 nM at D(2) dopamine receptor [1] and 3.98 nM at D(3) dopamine receptor [2].

Regarding `O=C(/C=C/c1ccccc1)NCCCCN1CCc2ccc(OS(=O)(=O)C(F)(F)F)cc2C1`, the inhibitory constant (Ki) was 316 nM on D(2) dopamine receptor [1] and 5.01 nM at D(3) dopamine receptor [2].

Turning to `Cc1ccccc1-c1ccc(C(=O)NCCCCN2CCc3ccc(OS(=O)(=O)C(F)(F)F)cc3C2)cc1`, the inhibition constant Ki on D(2) dopamine receptor [1] is 1580 nM; on D(3) dopamine receptor [2], 50.1 nM.

As to `Cc1nnc(-c2ccc(-c3ccc(C(=O)NCCCCN4CCc5ccc(OS(=O)(=O)C(F)(F)F)cc5C4)cc3)cc2)o1`, the Ki at D(2) dopamine receptor [1] is 100 nM; on D(3) dopamine receptor [2], 2 nM.

`O=C(/C=C/c1ccc2ncccc2c1)NCCCCN1CCc2ccc(OS(=O)(=O)C(F)(F)F)cc2C1`: the values for the Ki on D(2) dopamine receptor [1] and at D(3) dopamine receptor [2] were 251 nM and 3.16 nM, respectively.

Consider `O=C(NCCCCN1CCc2ccc(OS(=O)(=O)C(F)(F)F)cc2C1)c1cccc(-c2ccccc2)c1`, for which the values for the Ki at D(2) dopamine receptor [1] and on D(3) dopamine receptor [2] were 501 nM and 126 nM, respectively.

On to `Cc1cc(C(=O)NCCCCN2CCc3ccc(OS(=O)(=O)C(F)(F)F)cc3C2)ccc1-c1ccccc1`, for which the Ki is 1000 nM at D(2) dopamine receptor [1] and 50.1 nM at D(3) dopamine receptor [2].

For `O=C(/C=C/c1ccc2nc(O)ccc2c1)NCCCCN1CCc2ccc(OS(=O)(=O)C(F)(F)F)cc2C1`, the Ki is 158 nM at D(2) dopamine receptor [1] and 2.51 nM on D(3) dopamine receptor [2].

`O=C(NCCCCN1CCc2ccc(OS(=O)(=O)C(F)(F)F)cc2C1)c1ccc(-c2ccc(N3CCCC3=O)cc2)cc1`: the Ki on D(2) dopamine receptor [1] is 126 nM; on D(3) dopamine receptor [2], 2.51 nM.

In the case of `O=C(/C=C\c1ccccc1)NCCCCN1CCc2ccc(OS(=O)(=O)C(F)(F)F)cc2C1`, the inhibition constant (Ki) at D(2) dopamine receptor [1] was 316 nM; on D(3) dopamine receptor [2], 39.8 nM.

As for `CN(C)c1ccc(/C=C/C(=O)NCCCCN2CCc3ccc(OS(=O)(=O)C(F)(F)F)cc3C2)cc1`, the Ki was 501 nM on D(2) dopamine receptor [1] and 3.98 nM at D(3) dopamine receptor [2].

For `CC(=O)c1ccc(-c2ccc(C(=O)NCCCCN3CCc4ccc(OS(=O)(=O)C(F)(F)F)cc4C3)cc2)cc1`, the Ki was 200 nM on D(2) dopamine receptor [1] and 2.51 nM at D(3) dopamine receptor [2].

(Values after ChEMBL document CHEMBL1132014, “Novel 1,2,3,4-tetrahydroisoquinolines with high affinity and selectivity for the dopamine D3 receptor” (Bioorg Med Chem Lett, 1999).)
